# In patent publication US11746116B2, “Antibiotic resistance breakers” (KING'S COLLEGE LONDON, priority 2017, dated 2023):
# Like-named read-outs stand apart in the source and are kept apart here.
# Legend:
# MSSA9144 = assay: MIC, microdilution broth method; assay type: cell-based, Staphylococcus aureus; details: MSSA9144; in µg/mL
# EMRSA15 = assay: MIC, microdilution broth method; assay type: cell-based, Staphylococcus aureus
# EMRSA16 = assay: MIC, microdilution broth method; assay type: cell-based, Staphylococcus aureus
# VSE775 = assay: MIC, microdilution broth method; assay type: cell-based, Enterococcus faecalis; details: VSE775; in µg/mL
# VRE12201 = assay: MIC, microdilution broth method; assay type: cell-based, Enterococcus faecalis; details: VRE12201; in µg/mL
# VRE12204 = assay: MIC, microdilution broth method; assay type: cell-based, Enterococcus faecium; details: VRE12204; in µg/mL
# M6 = assay: MIC, microdilution broth method; assay type: cell-based; details: M6; Normal (no PMBN); in µg/mL
# Ab17978 = assay: MIC, microdilution broth method; assay type: cell-based; details: Ab17978; Normal (no PMBN); in µg/mL
# extended bacterial panel = assay: MIC against an extended bacterial panel (Table 15); assay type: cell-based
structure (smiles),measurement,setting,value
O=C(O)c1cn(C2CC2)c2cc(N3CCN(Cc4ccc(I)cc4)CC3)c(F)cc2c1=O,MIC,MSSA9144,0.12-0.25
same,MIC,"EMRSA15; EMRSA15, in µg/mL",4
same,MIC,"EMRSA16; EMRSA16, in µg/mL",4
same,MIC,VSE775,2
same,MIC,VRE12201,1-2
same,MIC,VRE12204,4
"O=C(O)c1cn(C2CC2)c2cc(N3CCN(Cc4ccc(-n5cncn5)cc4)CC3)c(F)cc2c1=O [Compound 2.36, 7-(4-(4-(1H-1,2,4-triazol-1-yl)benzyl)piperazin-1-yl)-1-cyclopropyl-6-fluoro-4-oxo-1,4-dihydroquinoline-3-carboxylic acid]",MIC,MSSA9144,0.12
same,MIC,"EMRSA15; EMRSA15, in µg/mL",16-32
same,MIC,"EMRSA16; EMRSA16, in µg/mL",16
same,MIC,VSE775,1
same,MIC,VRE12201,0.5
same,MIC,VRE12204,8
"CCn1cc(C(=O)O)c(=O)c2cc(F)c(N3CCN(Cc4ccc(-n5cncn5)cc4)CC3)cc21 [Compound 3.32, 7-(4-(4-(1H-1,2,4-triazol-1-yl)benzyl)piperazin-1-yl)-1-ethyl-6-fluoro-4-oxo-1,4-dihydroquinoline-3-carboxylic acid]",MIC,MSSA9144,1
same,MIC,VSE775,8
same,MIC,VRE12201,8
same,MIC,VRE12204,16
"CCn1cc(C(=O)O)c(=O)c2cc(F)c(N3CCNCC3)nc21 [Enoxacin, enoxacin, reference compound]",MIC,MSSA9144,2
same,MIC,VSE775,16
same,MIC,VRE12201,8
same,MIC,VRE12204,4-8
C[C@H]1COc2c(N3CC[C@@H](N)C3)c(F)cc3c(=O)c(C(=O)O)cn1c23 [KSN-L44],"MIC, EMRSA15","EMRSA15; EMRSA15 (Table 16, role of the terminal pyrimidine ring), in µg/mL",32
same,"MIC, EMRSA16","EMRSA16; EMRSA16 (Table 16, role of the terminal pyrimidine ring), in µg/mL",32
O=C(O)c1cn(C2CC2)c2cc(N3CCN(Cc4ccc(F)c5ccccc45)CC3)c(F)cc2c1=O [ML-77-048],MIC,M6,64
same,MIC,Ab17978,8
same,MIC,MSSA9144,4
same,MIC,"EMRSA15; EMRSA15, in µg/mL",4
same,MIC,"EMRSA16; EMRSA16, in µg/mL",8
same,MIC,VSE775,8
same,MIC,VRE12201,8
O=C(O)c1cn(C2CC2)c2cc(N3CCN(Cc4cccc5cccnc45)CC3)c(F)cc2c1=O [ML-77-052],MIC,M6,4
same,MIC,Ab17978,0.25
same,MIC,MSSA9144,0.5
same,MIC,"EMRSA15; EMRSA15, in µg/mL",64
same,MIC,VSE775,4
same,MIC,VRE12201,2
O=C(O)c1cn(C2CC2)c2cc(N3CCN(Cc4cc(=O)[nH]c5ccccc45)CC3)c(F)cc2c1=O [ML-77-058],MIC,M6,4-32
same,MIC,MSSA9144,0.25-1
same,MIC,VRE12201,0.5-4
C[C@H]1COc2c(N3CCCN(c4ncc(F)cn4)CC3)c(F)cc3c(=O)c(C(=O)O)cn1c23 [ML-83-034],MIC,"EMRSA15; Staphylococcus aureus, Staphylococcus aureus (EMRSA15), Table 12, read-out: MIC",8 µg/mL
same,MIC,"EMRSA16; Staphylococcus aureus (EMRSA16), Table 12, read-out: MIC",16 µg/mL
"CN[C@H](CC(C)C)C(=O)N[C@H]1C(=O)N[C@@H](CC(N)=O)C(=O)N[C@H]2C(=O)N[C@H]3C(=O)N[C@H](C(=O)N[C@H](C(=O)O)c4cc(O)cc(O)c4-c4cc3ccc4O)[C@H](O)c3ccc(c(Cl)c3)Oc3cc2cc(c3O[C@@H]2O[C@H](CO)[C@@H](O)[C@H](O)[C@H]2O[C@H]2C[C@](C)(N)[C@H](O)[C@H](C)O2)Oc2ccc(cc2Cl)[C@H]1O [Vancomycin, vancomycin, reference compound]",MIC,"extended bacterial panel; Staphylococcus aureus, ATCC10390, Staphylococcus aureus ATCC 10390",1 µg/mL
same,MIC,"extended bacterial panel; Staphylococcus aureus, ATCC 13709 / MRSA, Staphylococcus aureus ATCC 13709, MRSA",0.5 µg/mL
same,MIC,"extended bacterial panel; Staphylococcus aureus, ATCC19636, Staphylococcus aureus Smith, ATCC 19636",0.5 µg/mL
same,MIC,"extended bacterial panel; Staphylococcus aureus, ATCC27660, Staphylococcus aureus ATCC 27660",0.5 µg/mL
same,MIC,"extended bacterial panel; Staphylococcus aureus, ATCC29213, Staphylococcus aureus ATCC 29213",0.5 µg/mL
same,MIC,"extended bacterial panel; Staphylococcus aureus, ATCC29213, Staphylococcus aureus ATCC 29213 with 50% human serum",1 µg/mL
same,MIC,"extended bacterial panel; Staphylococcus aureus, ATCC 33591 / MRSA, Staphylococcus aureus ATCC 33591, MRSA",0.5 µg/mL
same,MIC,"extended bacterial panel; Staphylococcus aureus, ATCC 33592 / MRSA, Staphylococcus aureus ATCC 33592, MRSA",0.5 µg/mL
same,MIC,"extended bacterial panel; Staphylococcus aureus, ATCC33594, Staphylococcus aureus ATCC 33594",0.5 µg/mL
same,MIC,"extended bacterial panel; Staphylococcus aureus, ATCC49230, Staphylococcus aureus ATCC 49230",0.5 µg/mL
same,MIC,"extended bacterial panel; Staphylococcus aureus, BAA-1556 / MRSA / USA300, Staphylococcus aureus FPR3757, BAA-1556, USA300 MRSA",0.5 µg/mL
same,MIC,"extended bacterial panel; Staphylococcus aureus, BAA-1707 / MRSA / USA400, Staphylococcus aureus MW2, BAA-1707, USA400 MRSA",0.5 µg/mL
same,MIC,"extended bacterial panel; Staphylococcus aureus, BAA-1717 / MRSA / USA300, Staphylococcus aureus TCH1516, BAA-1717, USA300 MRSA",0.5 µg/mL
same,MIC,"extended bacterial panel; Staphylococcus aureus, MRSA / NRS 71, Staphylococcus aureus NRS71, MRSA",0.25 µg/mL
same,MIC,"extended bacterial panel; Staphylococcus aureus, MRSA / NRS 119, Staphylococcus aureus NRS119, MRSA LZD-NS",1 µg/mL
same,MIC,"extended bacterial panel; Staphylococcus aureus, MRSA / NRS 123 / USA400, Staphylococcus aureus NRS123, USA400 MRSA",0.5 µg/mL
same,MIC,"extended bacterial panel; Staphylococcus aureus, MRSA / NRS 127, Staphylococcus aureus NRS127, MRSA LZD-NS",1 µg/mL
same,MIC,"extended bacterial panel; Staphylococcus aureus, MRSA / NRS 271, Staphylococcus aureus E-MRSA 15, NRS271, MRSA LZD-NS",0.5 µg/mL
same,MIC,"extended bacterial panel; Staphylococcus aureus, MRSA / NRS 382 / USA100, Staphylococcus aureus NRS382, USA100 MRSA",1 µg/mL
same,MIC,"extended bacterial panel; Staphylococcus aureus, MRSA / NRS 383 / USA200, Staphylococcus aureus NRS383, USA200 MRSA TIG-NS",0.5 µg/mL
same,MIC,"extended bacterial panel; Staphylococcus aureus, MRSA / NRS 384 / USA300, Staphylococcus aureus NRS384, USA300 MRSA",0.5 µg/mL
same,MIC,"extended bacterial panel; Staphylococcus aureus, MRSA / NRS 385 / USA500, Staphylococcus aureus NRS385, USA500 MRSA",0.5 µg/mL
same,MIC,"extended bacterial panel; Staphylococcus aureus, MRSA / NRS 386 / USA700, Staphylococcus aureus NRS386, USA700 MRSA",0.5 µg/mL
same,MIC,"extended bacterial panel; Staphylococcus aureus, MRSA / NRS 387 / USA800, Staphylococcus aureus NRS387, USA800 MRSA",1 µg/mL
same,MIC,"extended bacterial panel; Staphylococcus aureus, MRSA / NRS 483, Staphylococcus aureus NRS483, USA1000 MRSA",0.5 µg/mL
same,MIC,"extended bacterial panel; Staphylococcus aureus, MRSA / NRS 484, Staphylococcus aureus NRS484, USA1100 MRSA",1 µg/mL
same,MIC,"extended bacterial panel; Staphylococcus aureus, MRSA, Staphylococcus aureus ECL 2963621, MRSA DAP-NS",1 µg/mL
same,MIC,"extended bacterial panel; Staphylococcus aureus, MRSA, Staphylococcus aureus ECL 2963667, MRSA DAP-NS",1 µg/mL
same,MIC,"extended bacterial panel; Staphylococcus aureus, MRSA, Staphylococcus aureus ECL 2963743, MRSA DAP-NS",1 µg/mL
same,MIC,"extended bacterial panel; Staphylococcus aureus, MRSA, Staphylococcus aureus R136",0.5 µg/mL
same,MIC,"extended bacterial panel; Staphylococcus aureus, NRS72, Staphylococcus aureus Sanger-476, NRS72",0.5 µg/mL
same,MIC,"extended bacterial panel; Staphylococcus aureus, NRS157, Staphylococcus aureus NRS157",0.5 µg/mL
same,MIC,"extended bacterial panel; Staphylococcus aureus, Staphylococcus aureus 6538P",0.125 µg/mL
same,MIC,"extended bacterial panel; Staphylococcus epidermidis, ATCC12228, Staphylococcus epidermidis ATCC 12228",0.5 µg/mL
same,MIC,"extended bacterial panel; Staphylococcus epidermidis, ATCC51625, Staphylococcus epidermidis CCF 15990, ATCC 51625",1 µg/mL
same,MIC,"extended bacterial panel; Staphylococcus epidermidis, NRS101, Staphylococcus epidermidis NRS101",1 µg/mL
same,MIC,"extended bacterial panel; Staphylococcus haemolyticus, ATCC29970, Staphylococcus haemolyticus ATCC 29970",1 µg/mL
same,MIC,"extended bacterial panel; Staphylococcus intermedius, ATCC29663, Staphylococcus intermedius ATCC 29663",1 µg/mL
same,MIC,"extended bacterial panel; Staphylococcus saprophyticus, ATCC15305, Staphylococcus saprophyticus ATCC 15305",0.5 µg/mL
same,MIC,extended bacterial panel; Strepotococcus pyogenes ATCC 14289,0.25 µg/mL
same,MIC,extended bacterial panel; Strepotococcus pyogenes ATCC 19615,0.25 µg/mL
same,MIC,"extended bacterial panel; Streptococcus agalactiae, ATCC12386, Streptococcus agalactiae ATCC 12386",0.5 µg/mL
same,MIC,"extended bacterial panel; Streptococcus mutans, ATCC25175, Streptococcus mutans ATCC 25175",2 µg/mL
same,MIC,"extended bacterial panel; Streptococcus oralis, ATCC9811, Streptococcus oralis ATCC 9811",0.5 µg/mL
same,MIC,"extended bacterial panel; Streptococcus pneumoniae, ATCC6301, Streptococcus pneumoniae ATCC 6301",0.25 µg/mL
same,MIC,"extended bacterial panel; Streptococcus pneumoniae, ATCC49619, Streptococcus pneumoniae ATCC 49619",0.25 µg/mL
same,MIC,"extended bacterial panel; Streptococcus pneumoniae, ATCC51916, Streptococcus pneumoniae Tenessee 23F, ATCC 51916, MDR",0.25 µg/mL
same,MIC,"extended bacterial panel; Streptococcus pneumoniae, ATCC700669, Streptococcus pneumoniae SP264, ATCC 700669, ST 23F",0.25 µg/mL
same,MIC,"extended bacterial panel; Streptococcus pneumoniae, ATCC700673, Streptococcus pneumoniae Hungary 19A, ATCC 700673, MDR",0.25 µg/mL
same,MIC,"extended bacterial panel; Streptococcus pneumoniae, ATCC700675, Streptococcus pneumoniae S. Africa 6B-8, ATCC 700675",0.25 µg/mL
same,MIC,"extended bacterial panel; Streptococcus pneumoniae, ATCC700676, Streptococcus pneumonia England ST14-9 ATCC 700676, ERY-R",0.25 µg/mL
same,MIC,"extended bacterial panel; Streptococcus pneumoniae, ATCC 700677 / PRSP, Streptococcus pneumoniae CSR 14-10, ATCC 700677, PRSP",0.25 µg/mL
same,MIC,"extended bacterial panel; Streptococcus pneumoniae, PRSP, Streptococcus pneumoniae TM532",0.25 µg/mL
same,MIC,"extended bacterial panel; Streptococcus salivarius, ATCC13419, Streptococcus salivarius ATCC 13419",0.5 µg/mL
same,MIC,"extended bacterial panel; Streptococcus sanguinis, ATCC10556, Streptococcus sanguinis ATCC 10556",0.5 µg/mL
